Data from patent publication US7645802B2 (Biovail Laboratories International SRL., priority 2005, dated 2010).
Counter-ions that a name gives are not always drawn.

How the values were obtained:
[1] = forced degradation of bupropion HBr and HCl in the presence of excipients at 55° C., 55° C./100% RH, 100° C., 105° C. (incl. TGA at 100° C.); format: physicochemical; details: in the presence of excipients, 55° C., 55° C./100% RH, 100° C., 105° C.
Description: Further forced degradation studies were carried out at 55° C., at 55° C. and 100% relative humidity, at 100° C., and at 105° C. on both the HCl and HBr Bupropion salts in the presence of excipients. […] FIG. 53 is a graph showing the loss of each salt over time in a TGA experiment at 100° C.

CD-1 mice = assay: clonic convulsions in CD-1 mice after intraperitoneal dosing (range finding and main study)
Description: Two studies were performed to investigate the relative proconvulsant properties of the two bupropion salts. In the first instance a range finding study was performed to establish the appropriate dose range for the main study. In each study the mice were divided into two dose groups and injected intraperitoneally with either bupropion HCl or bupropion HBr.
A clonic convulsion was defined as a stiffening of the animal followed by jerking movements. The convulsions were classified as mild, moderate and severe according to the following descriptions.
Mild: Head and tail slightly extended and little jerking
Moderate: Head and tail fully extended with some jerking
Severe: Head and tail fully extended with strong jerking
Post-treatment findings recorded included continuous observation for 120 minutes for evidence of clonic convulsions, and intermittent (fixed) observations for 24 hours for other signs, including tonic convulsions, movement, activity, paralysis, gait and evidence of recovery.

mice = assay: Proconvulsant properties of bupropion salts: clonic convulsions in mice; details: for Mean Number of Convulsions/Mouse / Total Number of convulsions: N=13
Description: Number of convulsions and the intensity of the convulsions were recorded.
Mild: Head and tail slightly extended and little jerking; Moderate: Head and tail fully extended with some jerking; Severe: Head and tail fully extended with strong jerking. […] Step 2: To further investigate the patterns of convulsion occurrence using loglinear Poisson regression models. The number of convulsions was analyzed using the loglinear Poisson regression models with formulation, dose, and severity as predictors.

[2] = Closed vial / closed glass bottle stability (40° C./75% RH) of bupropion salt APIs; format: physicochemical
[3] = Dynamic Vapour Sorption (DVS) analysis
[4] = Solubility and other physical properties, Bupropion HBr vs Bupropion HCl; details: HCl from Erregierre, HBr from Chemi; hydrobromide
[5] = tested on: chemically-induced seizures (induced by pentylenetetrazole) in mice; details: cited from earlier work
[6] = 100 mg/kg i.p., pooled data N = 13/dose group, hydrobromide
[7] = 150 mg/kg i.p., pooled data N = 13/dose group, hydrobromide
[8] = 150 mg/kg, Moderate, hydrobromide
[9] = 150 mg/kg, Severe, hydrobromide
[10] = 10-Days, closed glass bottle 40 C./75% RH, HBr Lot# STN07491, HCl Lot# STN06973, hydrobromide
[11] = 10 Days, closed glass bottle 40 C./75% RH, HBr Lot# STN07492, HCl Lot# STN06978, hydrobromide
[12] = 14-Days, closed glass bottle 40° C./75% RH, HBr Lot# STN07492, HCl L# STN06973, hydrobromide
[13] = 24 Days, closed glass bottle 40° C./75% RH, HBr Lot# STN07492, HCl L# STN06973, hydrobromide
[14] = Initial, closed glass bottle 40 C./75% RH, HBr Lot# STN07491, HCl Lot# STN06973, hydrobromide
[15] = Initial, closed glass bottle 40 C./75% RH, HBr Lot# STN07492, HCl Lot# STN06978, hydrobromide
[16] = Initial, closed glass bottle 40° C./75% RH, HBr Lot# STN07492, HCl L# STN06973, hydrobromide

CC(NC(C)(C)C)C(=O)c1cccc(Cl)c1 (stereo not shown) [Bupropion HBr, bupropion hydrobromide]
stability / degradation compared to bupropion HCl [1]: significant improvements in stability compared to bupropion HCl
Mean Intensity of Convulsions/Mouse % of Total: Mild (CD-1 mice; [6]): 90.0 % of Total
Mean Intensity of Convulsions/Mouse % of Total: Moderate (CD-1 mice; [6]): 10.0 % of Total
Mean Intensity of Convulsions/Mouse % of Total: Severe (CD-1 mice; [6]): 0.0 % of Total
Mean Number of Convulsions/Mouse (CD-1 mice; [6]): 0.8
numbers of mice that had convulsions in the dose group (CD-1 mice; [6]): 3/13
Mean Number of Convulsions/Mouse (CD-1 mice; 100 mg/kg i.p., range-finding study, N = 3/dose group, hydrobromide): 0
numbers of mice that had convulsions in the dose group (CD-1 mice; 100 mg/kg i.p., second (main) study, N = 10/dose group): 3/10
Mean Number of Convulsions/Mouse (CD-1 mice; 100 mg/kg i.p., second (main) study, N = 10/dose group, hydrobromide): 1.0
Mean Intensity of Convulsions/Mouse % of Total: Mild (CD-1 mice; [7]): 21.3 % of Total
Mean Intensity of Convulsions/Mouse % of Total: Moderate (CD-1 mice; [7]): 25.7 % of Total
Mean Intensity of Convulsions/Mouse % of Total: Severe (CD-1 mice; [7]): 53.0 % of Total
Mean Number of Convulsions/Mouse (CD-1 mice; [7]): 46.6
Mean Number of Convulsions/Mouse (CD-1 mice; 150 mg/kg i.p., range-finding study, N = 3/dose group, hydrobromide): 11.0
Mean Number of Convulsions/Mouse (CD-1 mice; 150 mg/kg i.p., second (main) study, N = 10/dose group, hydrobromide): 57.3
numbers of mice that had convulsions in the dose group (CD-1 mice; […] i.p., pooled data N = 13/dose group, hydrobromide): 11/13
numbers of mice that had convulsions in the dose group (CD-1 mice; […] i.p., second (main) study, N = 10/dose group, hydrobromide): 8/10
recovery from other treatment-related signs (CD-1 mice; range finding study): tendency to recover more quickly
threshold for tonic convulsions (CD-1 mice; range finding study, i.p., hydrobromide): 125 mg/kg
Mean Number of Convulsions/Mouse, cumulative (mice; 100 mg/kg, All, hydrobromide): 0.77
Mean Number of Convulsions/Mouse (mice; 100 mg/kg, Mild, hydrobromide): 0.69
Total Number of convulsions (mice; 100 mg/kg, Mild, hydrobromide): 9
Mean Number of Convulsions/Mouse (mice; 100 mg/kg, Moderate): 0.08
Mean Number of Convulsions/Mouse, cumulative (mice; 100 mg/kg, Severe + Moderate, hydrobromide): 0.08
Mean Number of Convulsions/Mouse (mice; 100 mg/kg, Severe, 120 min observation, hydrobromide): 0.0
Total Number of convulsions (mice; 100 mg/kg, Severe, hydrobromide): 0
Mean Number of Convulsions/Mouse, cumulative (mice; 150 mg/kg, All, hydrobromide): 46.61
Mean Number of Convulsions/Mouse (mice; 150 mg/kg, Mild, hydrobromide): 9.92
Total Number of convulsions (mice; 150 mg/kg, Mild, hydrobromide): 129
Mean Number of Convulsions/Mouse (mice; [8]): 12.00
Total Number of convulsions (mice; [8]): 156
Mean Number of Convulsions/Mouse, cumulative (mice; 150 mg/kg, Severe + Moderate, hydrobromide): 36.69
Mean Number of Convulsions/Mouse (mice; [9]): 24.69
Total Number of convulsions (mice; [9]): 321
% Assay [2, 10]: 98.2%
% Impurities 3-CBZ [2, 10]: 0.070%
% Impurities 20U78/dilu [2, 10]: 0.051%
% Impurities 827U76 [2, 10]: 0.039%
% Impurities 852U77 [2, 10]: 0.125%
% Impurities Total (%) [2, 10]: 0.42%
% Impurities Total unknown [2, 10]: 0.129%
% Assay [2, 11]: 99.2%
% Impurities 3-CBZ [2, 11]: 0.031%
% Impurities 20U78/dilu [2, 11]: 0.044%
% Impurities 852U77 [2, 11]: 0.055%
% Impurities Total (%) [2, 11]: 0.24%
% Impurities Total unknown [2, 11]: 0.15%
% Impurities 827U76 ([2]; 14-Days, closed glass bottle 40° C./75% RH, HBr Lot# STN07492, HCl L# STN06973): 0.012%
% Assay [2, 12]: 98.8%
% Impurities 3-CBZ [2, 12]: 0.015%
% Impurities 20U78/dilu [2, 12]: 0.048%
% Impurities 852U77 [2, 12]: 0.058%
% Impurities Total (%) [2, 12]: 0.23%
% Impurities Total unknown [2, 12]: 0.105%
% Assay [2, 13]: 99.5%
% Impurities 3-CBZ [2, 13]: 0.022%
% Impurities 20U78/dilu [2, 13]: 0.038%
% Impurities 827U76 [2, 13]: 0.016%
% Impurities 852U77 [2, 13]: 0.052%
% Impurities Total (%) [2, 13]: 0.23%
% Impurities Total unknown [2, 13]: 0.104%
% Assay [2, 14]: 99.5%
% Impurities 3-CBZ [2, 14]: 0.011%
% Impurities 20U78/dilu [2, 14]: 0.041%
% Impurities Total (%) [2, 14]: 0.17%
% Impurities Total unknown [2, 14]: 0.129%
% Assay [2, 15]: 99.6%
% Impurities 3-CBZ [2, 15]: 0.007%
% Impurities 20U78/dilu [2, 15]: 0.041%
% Impurities Total (%) [2, 15]: 0.23%
% Impurities Total unknown [2, 15]: 0.194%
% Assay [2, 16]: 99.6%
% Impurities 3-CBZ [2, 16]: 0.007%
% Impurities 20U78/dilu [2, 16]: 0.044%
% Impurities 852U77 [2, 16]: 0.009%
% Impurities Total (%) [2, 16]: 0.16%
% Impurities Total unknown [2, 16]: 0.098%
solubility (physchem; organic solvent or mixture, EtOH): 92 mg/mL
solubility (physchem; organic solvent or mixture, IPA): 12 mg/mL
solubility (physchem; water): 143 mg/mL
hygroscopicity (DVS, words) ([3]; 0% RH-90% RH): non-hygroscopic
maximum water uptake (DVS) ([3]; at 90% RH): 0.14 % weight
PS (Malvern) 10% [4]: 10% 72 μm
PS (Malvern) 50% [4]: 50% 245 μm
PS (Malvern) 90% [4]: 90% 657 μm
moisture content KF [4]: 0.00%
pH (aq. 0.5%) [4]: 5.92

[Br-].[Na+] [sodium bromide]
ED50 / therapeutic dose level against pentylenetetrazole-induced seizures [5]: 910 mg/kg
